Measured values: patent publication US20240374563A1, “ANTICHOLINERGIC COMPOUNDS FOR USE IN TREATING NEUROMUSCULAR DISORDERS” (UNIVERSITY OF MONTRÉAL, priority 2022, published 2024)

Experiment: Darifenacin level in blood
Assay type: in vivo
Conditions: SOD1 mice after oral treatment; levels consistent with pre-clinical data; data not shown
Procedure: We opted for the dosage at 10 mg/kg since the primary goal is to restore PSCs activity by dampening their muscarinic activity close to WT levels. […] These were both essential steps to pursue the study.

NC(=O)C(c1ccccc1)(c1ccccc1)[C@@H]1CCN(CCc2ccc3c(c2)CCO3)C1 [darifenacin]
darifenacin in the blood: detected in the blood
